Experimental data taken from patent US8455688B2, “HDAC inhibitors” (Lixte Biotechnology, Inc., priority 2007, dated 2013).
Entries after “also recorded” stand apart in the source; their conditions may differ.

Legend:
MDA-MB-231 Breast = assay: CellTiter-Glo proliferation assay, MDA-MB-231; assay type: cell-based; settings: Homo sapiens, 72 hr incubation, read-out: IC50 (50% inhibition of proliferation)
Excerpt: (§1) MDA-MB-231, HT-29, NCI-H460, NCI-H522, NCI-H69, GXF-209, HepG2, OVAR-3, PANC-1, DU-145, LNCAP, HL-60, K-562, and MOLT-4 cell lines were either obtained from the American Type Culture Collection (ATCC; Manassas, Va.), or from the National Cancer Institute (NCl; Frederick, Md.). RPM-1640 media, L-glutamine dipeptide (HyQ SG-200), and HEPES were obtained from Hyclone (Logan, Utah). Fetal bovine serum (FBS) was obtained from Sigma-Aldrich, (St. Louis, Mo.). DMSO was purchases from Fisher Chemicals (Fair Lawn, N.J.). The CellTiter-Glo Luminescent Cell Viability Assay reagent was obtained from Promega Corporation (Madison, Wis.). All tissue culture plasticware was obtained from Corning Incorporated (New York, N.Y.). Compound 100 and Compound 102 were provided by Lixte Biotechnology Holdings, Inc. (East Setauket, N.Y.). All cell lines were routinely cultured twice weekly in RPMI-1640 medium supplemented with 2 mM L-glutamine dipeptide, 10 mM HEPES, and 10% FBS. The adherent cell lines MDA-MB-231, HT-29, NCI-H460, NCI-H522, GXF-209, HepG2, OVAR-3, PANC-1, DU-145, and LNCAP cells were each seeded into two 96-well plates at 2,500 cells per well in a total volume of 50 uL and incubated in a 37 C humidified 5% CO2 cell culture incubator overnight. […] Luminescence was then recorded using the PerkinElmer Microbeta scintillation and luminescence counter (Trilux).

HT-29 Colon = assay: CellTiter-Glo proliferation assay, HT-29; assay type: cell-based; settings: Homo sapiens, 72 hr incubation, read-out: IC50 (50% inhibition of proliferation)
Excerpt: as §1

NCI-H460 Lung large cell = assay: CellTiter-Glo proliferation assay, NCI-H460; assay type: cell-based; settings: Homo sapiens, 72 hr incubation, read-out: IC50 (50% inhibition of proliferation)
Excerpt: as §1

NCI-H522 Lung adenoca = assay: CellTiter-Glo proliferation assay, NCI-H522; assay type: cell-based; settings: Homo sapiens, 72 hr incubation, read-out: IC50 (50% inhibition of proliferation)
Excerpt: as §1

NCI-H69 Lung small cell = assay: CellTiter-Glo proliferation assay, NCI-H69; assay type: cell-based; settings: Homo sapiens, 72 hr incubation, read-out: IC50 (50% inhibition of proliferation)
Excerpt: as §1

GXF-209 Stomach = assay: CellTiter-Glo proliferation assay, GXF-209; assay type: cell-based; settings: Homo sapiens, 72 hr incubation, read-out: IC50 (50% inhibition of proliferation)
Excerpt: as §1

HepG2 Hepatoma = assay: CellTiter-Glo proliferation assay, HepG2; assay type: cell-based; settings: Homo sapiens, 72 hr incubation, read-out: IC50 (50% inhibition of proliferation)
Excerpt: as §1

OVCAR-3 Ovary adenoca = assay: CellTiter-Glo proliferation assay, OVCAR-3; assay type: cell-based; settings: Homo sapiens, 72 hr incubation, read-out: IC50 (50% inhibition of proliferation)
Excerpt: as §1

PANC-1 Pancreas = assay: CellTiter-Glo proliferation assay, PANC-1; assay type: cell-based; settings: Homo sapiens, 72 hr incubation, read-out: IC50 (50% inhibition of proliferation)
Excerpt: as §1

DU-145 Prostate = assay: CellTiter-Glo proliferation assay, DU-145; assay type: cell-based; settings: Homo sapiens, 72 hr incubation, read-out: IC50 (50% inhibition of proliferation)
Excerpt: as §1

LNCAP Prostate = assay: CellTiter-Glo proliferation assay, LNCAP; assay type: cell-based; settings: Homo sapiens, 72 hr incubation, read-out: IC50 (50% inhibition of proliferation)
Excerpt: as §1

[1] = tested on: HL-60 Leukemia promyelocytic; assay: CellTiter-Glo proliferation assay, HL-60; assay type: cell-based; settings: Homo sapiens, 72 hr incubation, estimated from the data, no curve fit possible, read-out: IC50 (50% inhibition of proliferation)
Excerpt: as §1

[2] = tested on: K562 Leukemia chronic myelo; assay: CellTiter-Glo proliferation assay, K562; assay type: cell-based; settings: Homo sapiens, 72 hr incubation, read-out: IC50 (50% inhibition of proliferation)
Excerpt: as §1

[3] = tested on: MOLT-4 Leukemia acute lympho; assay: CellTiter-Glo proliferation assay, MOLT-4; assay type: cell-based; settings: Homo sapiens, 72 hr incubation, read-out: IC50 (50% inhibition of proliferation)
Excerpt: as §1

[4] = tested on: medulloblastoma cell line DAOY; assay: Inhibition of growth of medulloblastoma cell line DAOY; assay type: cell-based
SHSY-5Y xenografts = assay: Inhibition of SHSY-5Y xenografts; settings: in vivo
normal mouse brain cells = assay: Viability of normal mouse brain cells
human cancer cell lines = assay: Proliferation of multiple human cancer cell lines (panel summary); assay type: cell-based; settings: panel of Table 2
Excerpt: as §1

| melting point | IC50 (MDA-MB-231 Breast) | IC50 (HT-29 Colon) | IC50 (NCI-H460 Lung large cell) | IC50 (NCI-H522 Lung adenoca) | IC50 (NCI-H69 Lung small cell) | IC50 (HepG2 Hepatoma) | IC50 (OVCAR-3 Ovary adenoca) | IC50 (PANC-1 Pancreas) | IC50 (DU-145 Prostate) | IC50 (LNCAP Prostate) | IC50 [1] | IC50 [2] | IC50 [3] | SMILES | IC50 (GXF-209 Stomach) | activity against medulloblastoma cell line DAOY [4] | activity against the growth of SHSY-5Y xenografts (SHSY-5Y xenografts) | viability of normal mouse brain cells compared to control (normal mouse brain cells) | activity against human cancer cell lines (human cancer cell lines) | cancer types against which most active (human cancer cell lines) |
| --- | --- | --- | --- | --- | --- | --- | --- | --- | --- | --- | --- | --- | --- | --- | --- | --- | --- | --- | --- | --- |
| 108 to 110 °C |  |  |  |  |  |  |  |  |  |  |  |  |  | CN(C)c1ccc(NC(=O)CCCCCNC(=O)c2ccccc2S)cc1 [Compound 206, 2-Mercapto-N-[5-(4-dimethylamino-3-yl-carbamoyl)pentyl]benzamide] |  |  |  |  |  |  |
|  | 24.8 µM | 47.6 µM | > 100 µM | 1.8 µM | 16.1 µM | 53.1 µM | 18.7 µM | 11.9 µM | 50.2 µM | 6.2 µM | ~60 µM | 58.3 µM | 26.3 µM | O=C(CCCCCNC(=O)c1ccccc1S)Nc1cccnc1 [Compound 205, 2-Mercapto-N-[5-(pyridin-3-ylcarbamoyl)pentyl]benzamide] | 22 µM | active | shows activity | high viability | low uM range; also recorded: active against multiple human cancer cell lines at low micromolar concentrations | most active against lung adenocarcinoma, stomach cancer, pancreatic cancer, and breast cancer |
